This note sets out measurements from patent US12729458B2, “Discovery and evolution of biologically active metabolites” (The Regents of the University of Colorado, a Body Corporate, priority 2020, dated 2026).

One series addresses T1, PTP1B (PTP1B1-321) (Homo sapiens, UniProt P18031).
T1 construct: His-tag; made in house; host or cells: E. coli BL21 (DE3), pET21b
T1 sequence (P18031 1-321): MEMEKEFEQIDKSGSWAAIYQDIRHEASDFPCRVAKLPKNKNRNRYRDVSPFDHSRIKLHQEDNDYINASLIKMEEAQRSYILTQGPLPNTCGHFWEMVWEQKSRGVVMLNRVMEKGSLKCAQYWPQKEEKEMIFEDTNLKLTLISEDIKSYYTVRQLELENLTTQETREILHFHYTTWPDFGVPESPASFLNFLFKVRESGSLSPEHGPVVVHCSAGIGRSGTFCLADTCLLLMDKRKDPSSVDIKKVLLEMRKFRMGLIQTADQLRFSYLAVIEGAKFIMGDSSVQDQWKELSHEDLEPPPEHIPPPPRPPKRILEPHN
The series can be described thus: PTP1B-catalyzed hydrolysis of pNPP in the presence of terpenoids (enzyme kinetics, IC50 from best-fit models). Type of series: biochemical, H. sapiens. The following applies: for IC50: 15 mM pNPP, 10% DMSO; for Ki: PTP1B1-321. On the procedure: Enzyme kinetics. To examine terpenoid-mediated inhibition, PTP1B-catalyzed hydrolysis of p-nitrophenyl phosphate (pNPP) was measured in the presence of various concentrations of terpenoids. Each reaction included PTP1B ([…]), pNPP (0.33, 0.67, 2, 5, 10, and 15 mM), inhibitors (110 μM, 50 μM, and 15 μM for amorphadiene; 100 μM, 50 μM, and 16.7 μM for taxadiene), and buffer (50 mM HEPES pH=7.5, 0.5 mM TCEP, 50 μg/ml BSA, 10% DMSO). The formation of p-nitrophenol was monitored by measuring absorbance at 405 nm every 10 seconds for 5 minutes on a Spectramax M2 plate reader.
Kinetic models were evaluated in three steps: (i) Initial-rate measurements collected in the absence and presence of inhibitors were fitted to Michaelis-Menten and inhibition models, respectively (here, the nlinfit and fminsearch functions from MATLAB were used). (ii) An F-test was used to compare the mixed model to the single-parameter model with the least sum squared error (here, the fcdf function from MATLAB was used to assign p-values), and the mixed model was accepted when p<0.05.
The MATLAB function “nlparci” was used to determine the confidence intervals of kinetic parameters, and those intervals were propagated to estimate corresponding confidence on IC50's.
Enzyme kinetics. To examine terpenoid-mediated inhibition, we measured PTP-catalyzed hydrolysis of p-nitrophenyl phosphate (pNPP) or 4-methylumbelliferyl phosphate (4-MUP, used when KM for pNPP was large) in the presence of various concentrations of terpenoids. Each reaction included PTP (0.05 μM PTP1B/TCPTP or 0.1 μM SHP1/SHP2 in 50 mM HEPES, 0.5 mM TCEP, 50 μg/ml BSA), pNPP (0.33, 0.67, 2, 5, 10, and 15 mM) or 4-MUP (0.13, 0.27, 0.8, 2.27, 2.93, 4.53, 7.07, and 8 mM), inhibitor (with concentrations listed in the figures), buffer (50 mM HEPES pH=7.3, 50 μg/ml BSA), and DMSO at 10% v/v. We monitored the formation of p-nitrophenol by measuring absorbance at 405 nm every 10 seconds for 5 minutes on a SpectraMax M2 plate reader and the formation of 4-methylumbelliferyl by measuring fluorescence at 450 nm (370 nm ex, 435 nm cutoff, medium gain).
We used a custom MATLAB script to process all raw kinetic data. This script removed all concentration values that fell outside of either (i) the range of our standard curve (absorbance/fluorescence vs. μM; FIG. 39) or (ii) the initial rate regime (>10% of the pNPP or 4-MUP concentration used in the assay). When this step reduced kinetic dataset to fewer than ten points, we re-measured those datasets to collect at least ten. We fit final datasets, in turn, with a linear regression model (using Matlab's backslash operator).
We evaluated kinetic models in three steps: (i) We fit initial-rate measurements collected in the absence and presence of inhibitors to Michaelis-Menten and inhibition models, respectively (here, we used the nlinfit and fminsearch functions from MATLAB; TABLE 12). (ii) We used an F-test to compare the mixed model to the single-parameter model with the least sum squared error (here, we used the fedf function from MATLAB to assign p-values), and we accepted the mixed model when p<0.05.

The target in another series is T2, PTP1B (Homo sapiens, UniProt P18031).
T2 construct: In this study, we used a well-studied truncation variant (i.e., PTP1B1-321); His-tag; made in house; host or cells: E. coli BL21 (DE3), pET21b
T2 sequence (P18031 1-321): T1 sequence (P18031 1-321)
The series can be described thus: X-ray crystallography of PTP1B soaked with ligand. In kind it is binding, H. sapiens. The method, then:
X-ray crystallography. We prepared crystals of PTP1B by using hanging drop vapor diffusion. In brief, we added 2 μL of PTP1B (~600 μM PTP1B, 50 mM HEPES, pH 7.3) to 6 μL of crystallization solution (100 mM HEPES, 200 mM magnesium acetate, and 14% polyethylene glycol 8000, pH 7.5) and incubated the resulting droplets over crystallization solution for one week at 4° C. (EasyXtal CrystalSupport, Qiagen). We soaked crystals with ligand by transferring them to droplets formed with 6 μL of crystallization solution and 1 μL of ligand solution (10 mM in DMSO), which we incubated for 2-5 days at 4° C. We prepared all […] for freezing by soaking them in cryoprotectant formed from a 70/30 (v/v) mixture of buffer (100 mM HEPES, 200 mM magnesium acetate, and 25% polyethylene glycol 8000, pH 7.5) and glycerol.
We collected X-ray diffraction data through the Collaborative Crystallography Program at Lawrence Berkeley National Lab (ALS ENABLE, beamline 8.2.1, 100 K, 1.00003 Å). We performed integration, scaling, and merging of X-ray diffraction data using the xia2 software package^79, and we carried out molecular replacement and structure refinement with the PHENIX graphical interface,^80 supplemented with manual model adjustment in COOT^81 and one round of PDB-REDO^82 (the latter, only for the PTP1B-AD complex).

In series [1] the test system is insulin receptor (IR) phosphorylation (PTP1B-mediated) in HEK293T/17 cells. Briefly: ELISA of insulin receptor (IR) phosphorylation in HEK293T/17 cells. Type of series: cell-based. Particulars: 3% DMSO, 10 minutes, starved HEK293T/17 cells, vs 3% DMSO control. An excerpt: Analysis of PTP1B inhibition in HEK293TCells. We prepared HEK293T/17 cells for an enzyme-linked immunosorbent assay (ELISA) by growing them in 75 cm^2 culture flasks (Corning) with DMEM media supplemented with 10% FBS, 100 units/ml penicillin, and 100 units/ml streptomycin. We replaced the media every day for 3-5 days until the cells reached 80-100% confluency.
We measured the influence of inhibitors on insulin receptor (IR) phosphorylation by using an IR-specific ELISA (FIG. 35). Briefly, we starved cells for 48 hours in FBS-free media and incubated the with inhibitors (all at 3% DMSO) for 10 minutes. After incubation, we lysed cells with lysis buffer (9803, Cell Signaling Technology) supplemented with 1× halt phosphatase inhibitor cocktail and 1× halt protease inhibitor cocktail (Thermo Fisher Scientific) for 10 min, pelleted the cell debris, and used the lysis buffer to dilute each sample to 60 mg/ml total protein. We measured IR phosphorylation in subsequent dilutions of the 60 mg/ml samples with the PathScan® Phospho-Insulin Receptor β (panTyr) Sandwich ELISA Kit (Cell Signaling Technology; #7082).
Statistical analysis and reproducibility. We determined statistical significance (FIG. 23H) with a two-tailed Student's t-test (details in TABLE 14), and we used an F-test to compare one- and two-parameter models of inhibition (TABLE 12).

Where [2] appears, read: competitive model of inhibition, read-out: Fit par. Ki, competitive model.
[3] abbreviates: mixed model, uncompetitive constant, read-out: Fit par. Ki,u, mixed model.
The mark [4] stands for this setting: noncompetitive model of inhibition, read-out: Fit par. Ki, noncompetitive model.
Where [5] appears, read: uncompetitive model of inhibition, read-out: Fit par. Ki, uncompetitive model.

Like-named read-outs stand apart in the source and are kept apart here.

A word on the IC50: it is the point on the concentration scale where inhibition reaches its midpoint. Usually Ki stands for a measure of affinity in units of concentration, obtained from inhibition or displacement. Consider `CC1=C[C@@H]2C(=C(C)CC[C@H]2C(C)C)CC1` [(+)-1 (10),4-cadinadiene], for which, at PTP1B (PTP1B1-321) (Example 2, HEPES pH 7.3, ± 95% confidence interval), the half-maximal inhibitory concentration (IC50) is 165 ± 33 µM. The Ki on PTP1B (PTP1B1-321) (setting [2]) was determined as 14.8 µM; on PTP1B (PTP1B1-321) (mixed model, competitive constant, read-out: Fit par. Ki,c, mixed model) it was 5690 µM; at PTP1B (PTP1B1-321) (setting [3]), 169 µM; at PTP1B (PTP1B1-321) (setting [4]) it was 190 µM; on PTP1B (PTP1B1-321) (setting [5]), 168 µM.
As to `CC1=CCC[C@@]2(C)CCC3=C(C)CC[C@@H](C[C@H]12)C3(C)C` [taxadiene], at PTP1B (PTP1B1-321) (Example 1, HEPES pH 7.5), the concentration for half-maximal inhibition (IC50) came out at 119 µM. At PTP1B (PTP1B1-321) (pNPP initial rates), the “model (mode) of PTP1B inhibition from Michaelis-Menten fits” value is listed as “mixed inhibition”.
In the case of `CC(C)=CCC[C@](C)(O)[C@@H]1CC=C(C)CC1` [α-bisabolol, reference compound], the inhibitory constant (Ki) at PTP1B (PTP1B1-321) (setting [2]) came out at 178 µM; on PTP1B (PTP1B1-321) (setting [3]), 469 µM; at PTP1B (PTP1B1-321) (setting [4]), 541 µM; on PTP1B (PTP1B1-321) (setting [5]), 469 µM. Besides, the “solubility (crystal soaking experiments)” value at PTP1B is “soluble”. Further, the “IR phosphorylation (ELISA signal)” value in series [1] (405 μM) is on record as “reduction in signal”; in series [1] (405 μM, listed as ABOL) it was “reduced signals”.
On to `CC1=C[C@H]2[C@@H](CC1)[C@H](C)CC[C@H]2[C@@H](C)C(=O)O` [dihydroartemisinic acid, reference compound], for which the Ki on PTP1B (PTP1B1-321) (setting [2]) stood at 178 µM; at PTP1B (PTP1B1-321) (setting [3]) it was 469 µM; on PTP1B (PTP1B1-321) (setting [4]) it was 541 µM; at PTP1B (PTP1B1-321) (setting [5]), 469 µM. The “IR phosphorylation (ELISA signal)” value in series [1] (930 μM) is reported as “reduction in signal”; in series [1] (930 μM, listed as DHA), “reduced signals”.
